Columns and labels:
N. fowleri = tested on: N. fowleri; design: method as in PMID 30783001; conditions: media containing the glycolytic inhibitor; cited from earlier work
[1] = molecular target: T1, NfGlck (Naegleria fowleri glucokinase) (Naegleria fowleri, UniProt A0A384E136); design: method as in PMID 35604214; conditions: cited from earlier work; for selectivity over the human variant (HsGlck): NfGlck vs HsGlck; for NfGlck IC50: previously identified NfGlck inhibitors
[2] = molecular target: T2, AcGlck (Acanthamoeba castellanii glucokinase) (Acanthamoeba castellanii, UniProt L8GT25); design: method as in PMID 35604214; conditions: cited from earlier work
T2 sequence (L8GT25 entry or part of it): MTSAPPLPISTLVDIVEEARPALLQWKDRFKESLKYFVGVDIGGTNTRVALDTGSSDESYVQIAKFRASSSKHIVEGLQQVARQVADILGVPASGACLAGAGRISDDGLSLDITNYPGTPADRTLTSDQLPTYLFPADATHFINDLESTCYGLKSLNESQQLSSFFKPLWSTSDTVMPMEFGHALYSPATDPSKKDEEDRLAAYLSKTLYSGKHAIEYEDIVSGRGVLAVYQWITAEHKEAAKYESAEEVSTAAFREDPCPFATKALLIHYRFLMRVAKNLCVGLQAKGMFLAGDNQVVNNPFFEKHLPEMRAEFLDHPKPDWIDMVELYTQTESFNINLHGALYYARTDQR

[3] = molecular target: T3, BmGlck (Balamuthia mandrillaris glucokinase) (Balamuthia mandrillaris, UniProt Z9NIO0WF95); design: method as in PMID 35604214; conditions: cited from earlier work
[4] = molecular target: T3, BmGlck (Balamuthia mandrillaris glucokinase); experiment: Glucokinase assay (G6PDH-coupled reaction, absorbance at 340 nm), BmGlck; type: biochemical; conditions: 10 nM enzyme, 15 min preincubation, pH 8, triplicate
Experimental: (§1) The open reading frames of NfGlck, AcGlck, and BmGlck were cloned into pQE30, transformed into M15(pREP) Escherichia coli (Qiagen, Valencia, CA), and expressed as previously described.[48],[54] Briefly, E. coli M15(pREP4) harboring pQE30 constructs were inoculated and grown to an optical density at 600 nm (OD600) of ∼0.6 prior to induction with 500 μM isopropyl β-D-1-thiogalactopyranoside (IPTG). Protein from bacterial lysate was purified by nickel column chromatography (HisTrap FF; GE Healthcare Life Sciences, Pittsburgh, PA) followed by ion-exchange chromatography (HiTrap Q XL; GE Healthcare Life Sciences, Pittsburgh, PA). Protein was typically stored in 25 mM HEPES–Na (pH 7.4), 150 mM NaCl, and 50% glycerol after protein concentrations were determined by using a Bradford assay with bovine serum albumin (BSA) as a standard.
(§2) Enzyme activities were measured in triplicate using a coupled reaction described previously.[54] In a clear 96-well plate, enzyme (HsGlck, NfGlck, AcGlck, or BmGlck, all at 10 nM) was incubated with potential inhibitors (in DMSO) in their optimized assay buffer for 15 min at room temperature. For HsGlck and NfGlck, the assay buffer contained 50 mM TEA and 3.3 mM MgCl2, pH 7.4. For AcGlck and BmGlck, the assay buffer contained 50 mM Tris-HCl and 3.3 mM MgCl2, pH 8. Substrate buffer (425 μM glucose, 2.5 mM ATP, 1 U/mL G6PDH, and 0.75 mM NADP^+) was added to each well to start the reaction for a total reaction volume of 200 μL. Immediately after addition, absorbance was measured at 340 nm at 15 s intervals for 2 min by using a BioTek Synergy H1 microplate reader (BioTek, Winooski, VT). Dose–response analysis and IC50 values were performed by using Prism 9.0 (GraphPad software, San Diego, CA). As a control, enzyme activity in inhibitor solvent (DMSO) was included in every assay. To solve the mode of inhibition, NfGlck activity was measured with increasing substrate concentrations (0–1.25 mM) of glucose in the presence or absence of different inhibitor concentrations (0–10 μM) in technical triplicates. Data were then analyzed, and statistical analyses were performed by extra sum-of-squares F test to compare two models of inhibition. […] All statistical analyses were performed using Prism 9 software.

[5] = molecular target: T4, HsGlck (human glucokinase) (Homo sapiens, UniProt P35557); experiment: Glucokinase assay (G6PDH-coupled reaction, absorbance at 340 nm), HsGlck; type: biochemical; conditions: 10 nM enzyme, 15 min preincubation, pH 7.4, triplicate
T4 sequence (P35557 1-465): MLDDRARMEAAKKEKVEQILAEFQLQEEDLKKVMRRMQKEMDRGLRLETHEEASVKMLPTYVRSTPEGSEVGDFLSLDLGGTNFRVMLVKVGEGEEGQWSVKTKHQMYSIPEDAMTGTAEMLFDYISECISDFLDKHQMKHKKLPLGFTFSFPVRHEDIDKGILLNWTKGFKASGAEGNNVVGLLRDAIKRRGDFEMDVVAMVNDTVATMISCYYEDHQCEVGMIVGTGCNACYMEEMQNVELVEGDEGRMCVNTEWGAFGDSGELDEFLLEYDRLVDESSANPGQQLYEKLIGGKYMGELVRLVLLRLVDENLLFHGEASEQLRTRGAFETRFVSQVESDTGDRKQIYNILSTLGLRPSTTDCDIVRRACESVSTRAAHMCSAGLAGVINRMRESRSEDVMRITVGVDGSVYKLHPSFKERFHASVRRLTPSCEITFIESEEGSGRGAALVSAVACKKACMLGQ
Experimental: as §2

[6] = molecular target: T1, NfGlck (Naegleria fowleri glucokinase); experiment: Glucokinase assay (G6PDH-coupled reaction, absorbance at 340 nm), NfGlck; type: biochemical; conditions: for IC50: 10 nM enzyme, 15 min preincubation, pH 7.4, triplicate
Experimental: as §1, §2

[7] = molecular target: T2, AcGlck (Acanthamoeba castellanii glucokinase); experiment: Glucokinase assay (G6PDH-coupled reaction, absorbance at 340 nm), AcGlck; type: biochemical; conditions: 10 nM enzyme, 15 min preincubation, pH 8, triplicate
Experimental: as §1, §2

T1 sequence (A0A384E136 entry or part of it): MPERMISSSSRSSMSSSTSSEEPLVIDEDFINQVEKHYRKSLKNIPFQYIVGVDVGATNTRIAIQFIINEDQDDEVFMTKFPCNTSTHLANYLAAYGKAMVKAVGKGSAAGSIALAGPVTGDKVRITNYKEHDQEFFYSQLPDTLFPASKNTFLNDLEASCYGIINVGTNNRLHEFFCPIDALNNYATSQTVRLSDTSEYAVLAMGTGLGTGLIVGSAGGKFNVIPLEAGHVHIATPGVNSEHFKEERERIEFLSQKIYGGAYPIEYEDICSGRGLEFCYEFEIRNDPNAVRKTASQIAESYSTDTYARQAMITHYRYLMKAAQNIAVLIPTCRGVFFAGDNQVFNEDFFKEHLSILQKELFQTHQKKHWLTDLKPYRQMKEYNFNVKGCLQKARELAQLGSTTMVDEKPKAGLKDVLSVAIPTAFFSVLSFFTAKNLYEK

Structure (SMILES) | IC50 [4] | IC50 [5] | IC50 [6] | IC50 [7] | selectivity for NfGlck over HsGlck ([6]; NfGlck vs HsGlck IC50) | effect on N. fowleri cellular growth (N. fowleri) | selectivity over the human variant (HsGlck) [1] | NfGlck IC50 [1] | activity against AcGlck [2] | activity against BmGlck [3]
O=C(O)C(=O)CBr [3-bromopyruvate] | – | – | – | – | – | decrease in cellular growth | – | – | – | –
N=C(N)Nc1ccc(-c2ccc(-c3ccc(N=C(N)N)c(Cl)c3)o2)cc1Cl [MMV688271] | – | – | – | – | – | – | lacked significant selectivity | submicromolar | not active | not active
O=c1c2ccccc2[se]n1-c1ccccc1 [SID856002, ebselen] | – | – | – | – | – | – | lacked significant selectivity | submicromolar | – | –
COc1cc(OC)cc(C(=O)NS(=O)(=O)c2ccc(CN3CCN(c4ccccc4)CC3)cc2)c1 [SZ1TA5] | > 10 µM | > 10 µM | > 10 µM | 11.6 ± 9.2 µM | – | – | – | – | – | –
O=C(NS(=O)(=O)CCN(CSCc1ccccc1)Cc1ccc2c(c1)OCO2)c1ccc2oc(-c3ccccc3)cc2c1 [SZ28TA41] | 7.22 ± 0.28 µM | > 10 µM | > 10 µM | 3.09 ± 0.66 µM | – | – | – | – | – | –
Cn1cc(C(=O)c2cccs2)c2cc(C(=O)NS(=O)(=O)c3ccc(-c4ccc5c(c4)OCCO5)cc3)ccc21 [SZ33TA45] | > 10 µM | 10.6 ± 0.45 µM | 10.9 ± 2 µM | > 10 µM | – | – | – | – | – | –
CCOc1ccc(-c2ccc3c(c2)c(C(=O)NS(=O)(=O)c2ccc(-c4ccc(Oc5ccccc5)cc4)cc2)cn3C)cc1F [SZ35TA23] | > 10 µM | > 10 µM | > 10 µM | 6.9 µM | – | – | – | – | – | –
COc1ccccc1-c1ccc(C(=O)NS(=O)(=O)c2ccc(-c3cc4ccccc4s3)cc2)cc1 [SZ37TA21] | 4.83 ± 0.76 µM | > 10 µM | > 10 µM | 5.1 ± 0.5 µM | – | – | – | – | – | –

Further molecules by falling IC50 [4], results first:

IC50 [4] | IC50 [5] | IC50 [6] | IC50 [7] | selectivity for NfGlck over HsGlck ([6]; NfGlck vs HsGlck IC50) | Structure (SMILES) | effect on N. fowleri cellular growth (N. fowleri) | selectivity over the human variant (HsGlck) [1] | NfGlck IC50 [1] | activity against AcGlck [2] | activity against BmGlck [3]
4.77 ± 1 µM | > 10 µM | > 10 µM | 4.35 ± 0.31 µM | – | Cn1cc(C(=O)NS(=O)(=O)CCN(CSCc2ccccc2)Cc2ccc3c(c2)OCO3)c2cc(-c3ccc(S(C)(=O)=O)cc3)ccc21 [SZ28TA26] | – | – | – | – | –
3 ± 0.54 µM | > 10 µM | > 10 µM | > 10 µM | – | O=C(NS(=O)(=O)c1ccc(-c2ccc(C(F)(F)F)cc2)cc1)c1ccc2oc(-c3ccccc3)cc2c1 [SZ16TA41] | – | – | – | – | –
1.92 ± 0.13 µM | > 10 µM | > 10 µM | 3.3 ± 1.3 µM | – | Cn1cc(C(=O)c2cccs2)c2cc(C(=O)NS(=O)(=O)c3ccc(-c4ccc(Oc5ccccc5)cc4)cc3)ccc21 [SZ35TA45] | – | – | – | – | –
1.68 ± 0.05 µM | > 10 µM | > 10 µM | > 10 µM | – | O=C(NS(=O)(=O)CCN(CSCc1ccccc1)Cc1ccc2c(c1)OCO2)c1ccc2c(ccn2Cc2ccc(C(F)(F)F)cc2C(F)(F)F)c1 [SZ28TA30] | – | – | – | – | –
1.48 ± 0.13 µM | > 10 µM | > 10 µM | 4.4 ± 0.4 µM | – | O=C(NS(=O)(=O)c1ccc(-c2ccc3c(c2)OCCO3)cc1)c1ccc2c(ccn2Cc2ccc(C(F)(F)F)cc2C(F)(F)F)c1 [SZ33TA30] | – | – | – | – | –
1.19 ± 0.29 µM | > 10 µM | > 10 µM | 1.6 ± 0.1 µM | – | O=C(NS(=O)(=O)c1ccc(-c2ccc(Oc3ccccc3)cc2)cc1)c1ccc2oc(-c3ccccc3)cc2c1 [SZ35TA41] | – | – | – | – | –
0.33 ± 0.05 µM | 8.5 ± 0.37 µM | 1.9 ± 1.1 µM | 0.21 ± 0.04 µM | slight selectivity | O=C(NS(=O)(=O)c1ccc(-c2ccc(Oc3ccccc3)cc2)cc1)c1ccc2c(ccn2Cc2ccc(C(F)(F)F)cc2C(F)(F)F)c1 [SZ35TA30] | – | – | – | – | –
